{"source": "patent US11541081B2", "about": "“Methods and compositions for changing the composition of the skin microbiome using complex mixtures of bacterial strains” (priority 2016, dated 2023)", "key": {"acne patients": {"tested_on": "acne patients", "test": "Pilot clinical study: safety evaluation", "assay_type": "in vivo, human", "details": "BPO once a day, Day 1-Day 7, 14 subjects", "experimental": "(§1) The pilot study was performed for 6 weeks with 14 subjects between 18-23 years. The primary endpoints were safety and efficacy trends. Two different bacterial formulations: A2 (a 2-strain mixture comprising strains C3 and K8 of P. acnes) and B4 (a 4-strain mixture comprising strains C3, K8, A5, and F4 of P. acnes) were tested.\n(§2) Subjects were randomly distributed into two arms with different bacterial formulations administered to the subjects in each arm. Bacterial formulations were double-blinded: Arm 1: n=8 subjects received formulation A2. Arm 2: n=6 subjects received formulation B4. Subjects were evaluated on Day 1, Day 7, Day 21, and Day 42. In the first week, between Day 1 and Day 7, all subjects received Benzoyl peroxide (BPO) treatment (applied once a day). In the following 5 weeks, between Day 7 and Day 42, all subjects received bacterial formulation (gel applied 2× per day). FIG. 8A depicts the design of the pilot study.\nThe safety of the administered formulations was evaluated, for example, by visual evaluation of the redness, irritation or any other skin problems during each visit. No safety issues were observed during the study. Seven subjects reported dry or red skin during the use of BPO (Day 1-Day 7). […] No adverse effects were observed associated with the administration of live bacteria."}, "skin microbiome": {"tested_on": "skin microbiome", "test": "Pilot clinical study: bacterial species composition of skin microbiome (16S)", "assay_type": "in vivo, human", "details": "after BPO application (Day 7)", "experimental": "as §1, §2\nThe composition of bacterial species (16S) in the microbiome samples were analyzed on each visit. […]\nWhen relating the bacterial species (16S) data with the strain level data (SLST) of P. acnes, it was observed that on Day 1 (ground state) the relative abundance of P. acnes was lower in acceptors (34%) compared to non-acceptors (41%). […] Relative abundances were determined using classical 16S amplicon sequencing. […]"}, "[1]": {"test": "MBC test, 24 h exposure to benzoic acid, then 4 days on RCM agar", "details": "all P. acnes strains tested"}, "P. acnes strains": {"tested_on": "P. acnes strains", "test": "Inhibition of P. acnes strains by salicylic acid", "assay_type": "cell-based"}, "P. acnes": {"tested_on": "P. acnes", "details": "Allgaier et al., 1985; cited from earlier work"}}, "data": [{"molecule": "O=C(OOC(=O)c1ccccc1)c1ccccc1", "note": "[BPO, Benzoyl peroxide]", "values": [{"measurement": "subjects reporting dry or red skin", "setting": "acne patients", "value": "Seven"}, {"measurement": "change of total P. acnes population", "setting": "skin microbiome", "value": "decrease"}]}, {"molecule": "O=C(O)c1ccccc1", "note": "[Benzoic acid]", "values": [{"measurement": "concentration of benzoic acid affecting the growth of all strains (MBC test)", "setting": "[1]", "value": "greater than 0.31 % vol/vol"}]}, {"molecule": "O=C(O)c1ccccc1O", "note": "[salicylic acid]", "values": [{"measurement": "inhibition of P. acnes strains", "setting": "P. acnes strains", "value": "not inhibited"}]}, {"molecule": "Epidermin", "values": [{"measurement": "activity against P. acnes", "setting": "P. acnes", "value": "highly active"}]}]}
